In US12440493B2, “Combination therapy for treating cancer comprising substituted piperazines” (Eli Lilly and Company, priority 2020, dated 2025):
“And” between values parts separate entries of the source, which are not always exact repeats. Equal entries are not always repeated.

Tested on: 2-HG production
Assay: Plasma 2-HG inhibition (LC-MS metabolite analysis in plasma of AML PDx model)
Format: in vivo, human
Settings: for % plasma 2-HG (treatment group value): vehicle 100%
[1] = 3.3 mg/kg Compound A, QD, PO, Table 1D, each line one animal
[2] = 3.3 mg/kg Compound A, QD, PO, Table 2D, each line one animal
[3] = plasma, B: 1 mg/kg Compound A, QD, PO, one line per animal
[4] = plasma, C: 10 mg/kg Compound A, one line per animal

SMILES: C=CC(=O)N1CCN([C@@H](CC2CC2)c2ccc([C@H](C)Nc3ncc4c(n3)N(CC)C(=O)OC4)cc2)CC1 [Compound A, 7-[[(1S)-1-[4-[(1S)-2-cyclopropyl-1-(4-prop-2-enoylpiperazin-1-yl)ethyl]phenyl]ethyl]amino]-1-ethyl-4H-pyrimido[4,5-d][1,3]oxazin-2-one]
- % Inhibition of 2-HG (plasma) [1]: 92.715% and 97.316% and 100.207% and 99.855% and 92.797% and 94.779%
- Naive Subtracted 2-HG (plasma) [1]: 0.134 µM and 0.809 µM and 0.298 µM and -0.023 µM and 0.016 µM and 0.799 µM and 0.579 µM
- Plasma 2-HG [1]: 1.042 µM and 1.717 µM and 1.206 µM and 0.885 µM and 0.924 µM and 1.708 µM and 1.488 µM
- % Inhibition of 2-HG (plasma) [2]: 118.011% and 98.032% and 112.937% and 127.909% and 122.77% and 118.689% and 111.758%
- Naive Subtracted 2-HG (plasma) [2]: -1.236 µM and 0.135 µM and -0.888 µM and -1.915 µM and -1.562 µM and -1.282 µM and -0.807 µM
- Plasma 2-HG [2]: 1.701 µM and 3.072 µM and 2.049 µM and 1.022 µM and 1.374 µM and 1.654 µM and 2.13 µM
- inhibition at 10 mg/kg (NSG mice, plasma, C: 10 mg/kg Compound A, one line per animal): 84%
- inhibition at 3.3 mg/kg (NSG mice, po, 3.3 mg/kg Compound A, QD, Table 1D, each line one animal): 98.8%
- inhibition at 1 mg/kg (NSG mice, po, plasma, B: 1 mg/kg Compound A, QD, PO, one line per animal): 54.7%
- % plasma 2-HG (treatment group value) (group B: 1 mg Compound A): 38%
- % plasma 2-HG (treatment group value) (group B: Compound A (3.3 mg/kg), azacitidine study): −15%
- % plasma 2-HG (treatment group value) (group B: Compound A (3.3 mg/kg), cytarabine study): 3.4%
- % plasma 2-HG (treatment group value) (group C: 10 mg Compound A): 9.2%
- 2-HG [3]: 9.264 µM and 6.489 µM and 7.318 µM and 8.683 µM and 8.938 µM
- % Inhibition of 2-HG [3]: 73.015% and 67.532% and 58.504% and 56.818%
- Naive Subtracted 2-HG [3]: 6.855 µM and 4.08 µM and 4.909 µM and 6.274 µM and 6.529 µM
- 2-HG [4]: 4.821 µM and 4.395 µM and 4.286 µM and 3.033 µM and 2.863 µM
- % Inhibition of 2-HG [4]: 86.867% and 87.584% and 95.874% and 97%
- Naive Subtracted 2-HG [4]: 2.412 µM and 1.986 µM and 1.877 µM and 0.624 µM and 0.454 µM
